How the values were obtained:
OATP2B1 [1] = molecular target: T1, OATP2B1 (Homo sapiens, UniProt O94956); conditions: cRNA-injected Xenopus laevis oocytes; cited from earlier work
T1 sequence (O94956 1-709): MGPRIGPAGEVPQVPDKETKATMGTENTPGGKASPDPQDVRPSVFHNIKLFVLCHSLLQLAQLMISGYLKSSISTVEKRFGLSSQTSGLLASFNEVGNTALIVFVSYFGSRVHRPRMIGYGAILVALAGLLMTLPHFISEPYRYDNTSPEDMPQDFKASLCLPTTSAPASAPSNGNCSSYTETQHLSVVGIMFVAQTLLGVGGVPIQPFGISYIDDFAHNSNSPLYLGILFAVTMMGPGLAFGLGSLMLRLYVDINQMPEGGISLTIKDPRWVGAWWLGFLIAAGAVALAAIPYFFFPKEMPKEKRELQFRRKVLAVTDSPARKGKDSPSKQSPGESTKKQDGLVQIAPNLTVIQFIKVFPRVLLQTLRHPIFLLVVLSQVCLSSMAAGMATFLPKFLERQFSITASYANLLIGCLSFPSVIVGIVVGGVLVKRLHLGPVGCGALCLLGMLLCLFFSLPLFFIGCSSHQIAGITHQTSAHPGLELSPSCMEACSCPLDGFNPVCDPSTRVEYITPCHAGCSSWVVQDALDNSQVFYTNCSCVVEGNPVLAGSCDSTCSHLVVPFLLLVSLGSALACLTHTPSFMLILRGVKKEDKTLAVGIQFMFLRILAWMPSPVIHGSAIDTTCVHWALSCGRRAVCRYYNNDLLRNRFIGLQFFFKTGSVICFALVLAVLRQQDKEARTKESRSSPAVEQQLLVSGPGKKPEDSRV

OATP2B1 [2] = molecular target: T1, OATP2B1; test: Uptake (intracellular accumulation) kinetics in ABCC2/OATP2B1 double-transfected MDCKII cells; type: in vitro ADME; design: expressed in transfected cells; host or cells: MDCKII (canine kidney) ABCC2 single-transfectant, further transfected with pcDNA3.1/Hygro(-)-OATP2B1; conditions: cell line ABCC2-OATP2B1; intracellular accumulation of 3H-labeled substrate
Experimental: (a) MDCKII cells were grown on ThinCerts (24-mm diameter, pore size 0.4 μm, pore density 1×10^8 per cm^2) and induced with butyrate as mentioned above. […] The ^3H-labeled substrate was dissolved in transport buffer and added either to the apical or to the basolateral compartment at the concentration indicated. After incubation at 37° C., the radioactivity in the opposite compartment was measured by sampling aliquots from the apical or basolateral compartment. Cells were washed 2 times with ice-cold transport buffer containing 0.5% bovine serum albumin and 3 times in ice-cold transport buffer. Intracellular accumulation of radioactivity was calculated by lyzing the cells with 0.2% sodium dodecyl sulfate (SDS) and measuring the radioactivity in the lysate.

OATP1B1 = molecular target: T2, OATP1B1 (Homo sapiens, UniProt Q9Y6L6); conditions: cRNA-injected Xenopus laevis oocytes; cited from earlier work
T2 sequence (Q9Y6L6 1-691): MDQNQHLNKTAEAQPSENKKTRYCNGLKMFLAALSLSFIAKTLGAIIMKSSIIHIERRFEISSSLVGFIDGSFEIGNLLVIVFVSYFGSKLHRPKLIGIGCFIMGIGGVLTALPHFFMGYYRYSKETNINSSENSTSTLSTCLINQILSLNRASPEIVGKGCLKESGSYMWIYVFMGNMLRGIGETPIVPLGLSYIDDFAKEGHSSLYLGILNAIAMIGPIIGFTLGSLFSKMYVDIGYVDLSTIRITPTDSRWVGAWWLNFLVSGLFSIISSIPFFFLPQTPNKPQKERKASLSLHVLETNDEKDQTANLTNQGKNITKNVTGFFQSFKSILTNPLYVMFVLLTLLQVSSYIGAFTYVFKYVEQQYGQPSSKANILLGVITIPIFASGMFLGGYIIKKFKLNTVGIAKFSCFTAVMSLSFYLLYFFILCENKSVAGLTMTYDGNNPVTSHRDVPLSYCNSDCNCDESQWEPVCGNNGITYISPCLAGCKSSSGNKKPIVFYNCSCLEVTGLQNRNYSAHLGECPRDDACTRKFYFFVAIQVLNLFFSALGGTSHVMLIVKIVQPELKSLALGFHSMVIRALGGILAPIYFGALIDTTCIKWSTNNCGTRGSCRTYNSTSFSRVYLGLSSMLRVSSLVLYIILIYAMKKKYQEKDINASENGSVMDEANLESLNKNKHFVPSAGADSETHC

**Q.** For `O=C1OC(c2ccc(O)c(S(=O)(=O)O)c2)(c2ccc(O)c(S(=O)(=O)O)c2)c2c(Br)c(Br)c(Br)c(Br)c21` [Bromosulfophthalein], which Km (OATP2B1 [1]) is on record?
**A.** 0.7 µM

**Q.** What about the Vmax (OATP2B1 [2]) of the same molecule?
**A.** 52.8 ± 8.6 pmol · mg protein^−1 · min^−1

**Q.** And the Km (OATP1B1)?
**A.** 0.3 µM

Reference: patent US20080038728A1, “Quadruple Transformed Cell Line Useful for the Identification of Transport Inhibitors” (priority 2004, published 2008)
